The values below come from patent US6911477B2, “Muscarinic receptor agonists” (Pfizer Inc., priority 1996, dated 2005).

Where a name gives a salt, the structure may show the parent alone.

`Cc1ccccc1C(=CC(=Nc1ccccc1)N1CCCCO1)Nc1ccc(F)cc1` (as salt: nitrate) [Example 91, (3-phenylimino-3-[1,2]oxazinan-2-yl-1-o-tolyl-propenyl)-(4-fluoro-phenyl)-amine]: the melting point is 151 to 153 °C.
`Cc1ccccc1C(=CC(=NC1CCCCC1)N1CCCCO1)Nc1ccc(F)cc1` (as salt: hydrochloride) [Example 95, (3-cyclohexylimino-3-[1,2]oxazinan-2-yl-1-o-tolyl-propenyl)-(4-fluoro-phenyl)-amine] showed a melting point of 171 to 172 °C.
To `CCC(C)N=C(NC(=Nc1ccc(F)cc1)c1c(C)cccc1C)N1CCCCC1C` (centres unmarked) (as salt: hydrochloride) [Example 98, N-[sec-butylimino-(2-methyl-piperidin-1-yl)-methyl]-N′-(4-fluoro-phenyl)-2,6-dimethyl-benzamidine] belongs 168 to 170 °C (dec.).
To `Cc1ccccc1C(=NC(=Nc1ccccc1)N1CCCCC1C)Nc1ccc(F)cc1` (centres unmarked) (as salt: hydrochloride) [Example 28, N-(4-fluoro-phenyl)-2-methyl-N′-[(2-methyl-piperidin-1-yl)-phenylimino-methyl]-benzamidine] belongs 173 to 175 °C; to `CC1CCCCN1C(=Nc1ccccc1)NC(=Nc1ccccc1)c1ccccc1` (centres unmarked) (as salt: hydroiodid) [Example 33, N-[(2-methyl-piperidin-1-yl)-phenylimino-methyl]-N′-phenyl-benzamidine], 180 to 182 °C.
With `Cc1ccccc1C(=Nc1ccc(F)cc1)NC(=NC1CCCCC1)C1(C)CCCCC1` (as salt: hydrochloride) [Example 96, N-[cyclohexylimino-(1-methyl-cyclohexyl)-methyl]-N′-(4-fluoro-phenyl)-2-methyl-benzamidine] the figure was 127 to 129 °C; with `Cc1ccccc1C(=NC(=Nc1ccccc1)N1CCCCO1)Nc1ccc(F)cc1` (as salt: hydrochloride) [Example 42, N-(4-fluoro-phenyl)-2-methyl-N′-([1,2]oxazinan-2-yl-phenylimino-methyl)-benzamidine], 199 to 200 °C (dec.); with `Cc1ccccc1C(=Nc1ccc(F)cc1)NC(=Nc1ccccc1)N1CCCCCC1` (as salt: hydrochloride) [Example 34, N-(azepan-1-yl-phenylimino-methyl)-N′-(4-fluoro-phenyl)-2-methyl-benzamidine], 240 to 242 °C.
As to `Cc1cccc(C)c1C(=NC(=Nc1ccccc1)N1CCC(=O)CC1)Nc1ccc(F)cc1` (as salt: hydrochloride) [Example 63, N-(4-fluoro-phenyl)-2,6-dimethyl-N′-[(4-oxo-piperidin-1-yl)-phenylimino-methyl]-benzamidine], the melting point is 228 to 229 °C (dec.).
Turning to `c1ccc(N=C(N=C(Nc2ccccc2)c2ccccc2)N2CCSCC2)cc1` (as salt: hydroiodid) [Example 13, N-phenyl-N′-(phenylimino-thiomorpholin-4-yl-methyl)-benzamidine], the melting point was 216 to 218 °C (dec.).
With `Cc1cccc(C)c1C(=NC(=Nc1ccccc1)N1CCCC(O)C1)Nc1ccc(F)cc1` (centres unmarked) (as salt: hydrochloride) [Example 62, N-(4-fluoro-phenyl)-N′-[(3-hydroxy-piperidin-1-yl)-phenylimino-methyl]-2,6-dimethyl-benzamidine] the figure was 196 to 198 °C (dec.); with `c1ccc(N=C(N=C(Nc2ccccc2)c2ccccc2)N2CCCCC2)cc1` (as salt: hydroiodid) [Example 12, N-phenyl-N′-(phenylimino-piperidin-1-yl-methyl)-benzamidine], 198 to 200 °C (dec.); with `Clc1ccc(NC(=NC(=Nc2ccccc2)N2CCCC2)c2ccccc2)cc1` (as salt: hydrochloride) [Example 16, N-(4-chloro-phenyl)-N′-(phenylimino-pyrrolidin-1-yl-methyl)-benzamidine], 219 to 221 °C.
To `CC1CCCCN1C(N=C(Nc1ccc(F)cc1)c1c(F)cccc1F)=Nc1ccc(F)cc1` (centres unmarked) (as salt: nitrate) [Example 51, 2,6-difluoro-N-(4-fluoro-phenyl)-N′-[(4-fluoro-phenylimino)-(2-methyl-piperidin-1-yl)-methyl]-benzamidine] belongs 171 to 173 °C; to `Fc1ccc(N=C(NC(=Nc2ccccc2)N2CCCCCC2)c2c(F)cccc2F)cc1` (as salt: nitrate) [Example 56, N-(azepan-1-yl-phenylimino-methyl)-2,6-difluoro-N′-(4-fluoro-phenyl)-benzamidine], 171 to 173 °C; to `Cc1ccccc1C(=Nc1ccc(F)cc1)NC(=Nc1ccccc1)C12CC3CC(CC(C3)C1)C2` (as salt: hydrochloride) [Example 47, N-(adamantan-1-yl-phenylimino-methyl)-N′-(4-fluoro-phenyl)-2-methyl-benzamidine], 219 to 221 °C.
To `Cc1ccccc1C(=NC(=Nc1ccccc1F)N1CCC(O)CC1)Nc1ccc(F)cc1` (as salt: hydrochloride) [Example 36, N-(4-fluoro-phenyl)-N′-[(2-fluoro-phenylimino)-(4-hydroxy-piperidin-1-yl)-methyl]-2-methyl-benzamidine] belongs 174 to 175 °C.
Take `CC1CCCCN1C(N=C(Nc1ccc(F)cc1)c1c(Cl)cccc1Cl)=Nc1ccccc1` (centres unmarked) (as salt: hydrochloride) [Example 45, 2,6-dichloro-N-(4-fluoro-phenyl)-N′-[(2-methyl-piperidin-1-yl)-phenylimino-methyl]-benzamidine]: the melting point was 153 to 155 °C (dec.).
To `c1ccc(N=C(N=C(Nc2ccccc2)c2ccccc2)N2CCCC2)cc1` (as salt: hydrochloride) [Example 1, N-Phenyl-N′-(phenylimino-pyrrolidin-1-yl-methyl)-benzamidine] belongs 246 to 247 °C; to `Fc1ccccc1N=C(NC(=Nc1ccccc1)c1ccccc1)N1CCCC1` (as salt: hydrochloride) [Example 27, N-[(2-fluoro-phenylimino)-pyrrolidin-1-yl-methyl]-N′-phenyl-benzamidine], 254 to 255 °C.
With `Cc1cccc(C)c1C(=Nc1ccc(F)cc1)NC(=Nc1ccccc1)N1C(C)CCCC1C` (centres unmarked) (as salt: hydrochloride) [Example 48, N-[(2,6-dimethyl-piperidin-1-yl)-phenylimino-methyl]-N′-(4-fluoro-phenyl)-2,6-dimethyl-benzamidine] the figure was 172 to 174 °C (dec.).
To `Cc1cccc(C)c1C(=Nc1ccc(F)cc1)NC(=NC1CC1)N1CCCCO1` (as salt: hydrochloride) [Example 104, N-(cyclopropylimino-[1,2]oxazinan-2-yl-methyl)-N′-(4-fluoro-phenyl)-2,6-dimethyl-benzamidine] belongs 229 to 231 °C (dec.); to `Cc1ccccc1C(=Nc1ccc(F)cc1)NC(=NC1CC1)C1(C)CCCCC1` (as salt: hydrochloride) [Example 106, N-[cyclopropylimino-(1-methyl-cyclohexyl)-methyl]-N′-(4-fluoro-phenyl)-2-methyl-benzamidine], 205 to 207 °C.
